Assay [1] has as its system SW48 cells. In words: Proliferation assay SW48 (CellTiterGlo, 96 hours). The format is cell-based. To be noted: Homo sapiens. From the text:
(§1) The colon carcinoma cell lines SW48 (RRID: CVCL_1724), HCT 116 (RRID: CVCL_0291) and SNU-407 (RRID: CVCL_5058) were obtained from ATCC. The WRN-knockdown insensitive colon carcinoma cell line DLD-1 (RRID: CVCL_0248) was obtained from the Korean Cell Line Bank (KCLB), and used to generate a derivative in which the endogenous WRN gene copies were knocked out by CRISPR-mediated editing using standard CRISPR methods. The resulting cell line, DLD1-WRN-KO, was used to assess potential off-target compound effects.
(§2) SW48, SNU-407 and DLD1-WRN-KO cells were cultured in growth medium composed of RPMI-1640 (Amimed Cat #1-41F22-1), 2 mM L-Glutamine (Amimed Cat #5-10K50), 10 mM HEPES (Gibco Cat #15630-056), 1 mM sodium pyruvate (Amimed Cat #5-60F00-H), 1× Penicillin-Streptomycin (Amimed Cat #4-01F00-H) and 10% fetal calf serum (Amimed Cat #2-01F30-G, Lot #LB11566P). HCT 116 cells were cultured in growth medium composed of McCoys 5A (Amimed catalog #1-18F01-1), 2 mM L-Glutamine (Amimed Cat #5-10K50), 1× Penicillin-Streptomycin (Amimed Cat #4-01F00-H) and 10% fetal calf serum (Amimed Cat #2-01F30-G, Lot #LB11566P). All cells were maintained at 37° C. in a humidified 5% CO2 incubator.
(§3) Following filtration through a Steriflip-NY 20 μm filter (Millipore Cat #SCNY00020), trypsinized cells were seeded in 100 microliters growth medium at 2′000 (SW48) or 1′500 (SNU-407, DLD1-WRN-KO, HCT 116) cells/well into white, clear-bottom 96-well plates (Costar Cat #3903). Three replicate plates were prepared for each compound treatment condition. In addition, one plate (termed “day 0”) was prepared to quantify the number of viable cells at the time of compound addition. Following overnight incubation at 37° C. in a humidified 5% CO2 atmosphere, eight 3-fold serial dilutions of a given compound stock (obtained at a concentration of 10 mM in DMSO and stored at 4° C.) were dispensed directly into each of the triplicate assay plates using a HP 300D non-contact Digital Dispenser (TECAN). The final concentration of DMSO was normalized to 0.1% in all wells. 96 hours after compound addition, cellular ATP levels as a surrogate for cell viability was assessed following addition of 50 microliters CellTiterGlo (Promega Cat #G7573) reagent and luminescence quantification on a MPLEX multi-mode plate-reader (TECAN) following a 10 minute incubation at room temperature. The number of viable cells in the “day 0” plate were quantified identically on the day of compound addition.
(§4) For data analysis, the assay background signal that was determined in wells containing medium, but no cells, was subtracted from all other data points prior to further calculations. The extent of growth inhibition and potential cell kill was assessed by comparing the ATP levels (measured using CellTiterGlo, Promega) in compound-treated cells with those present at the time of compound addition. To this end, the following conditional concept was programmatically applied in HELIOS, an in-house software applying a multi-step decision tree to arrive at optimal concentration response curve fits (Gubler et al, SLAS DOI: 10.1177/2472555217752140) to calculate % growth (% G) for each compound-treated well: % G=(T−V0)/V0))*100 when T<V0, and % G=(T−V0)/(V−V0)))*100 when T>V0, where V0 is the viability level at time of compound addition, while V and T represent vehicle-control and compound-treated viability levels, respectively, at the end of the compound incubation. 100%, 0% and −100% signify absence of growth inhibition, growth stasis, and complete cell kill, respectively. Compound concentrations leading to half-maximal growth inhibition (G150) and residual cell viability at the highest tested compound concentration (Data (cmax), expressed in percent) were routinely calculated. Data analysis can also be carried out using commercially available software designed to derive IC50 values using 4-parameter fits (e.g. GraphPad Prism, XL fit). […]

In assay [2] the target is WRN helicase (core helicase motif aa N517-P1238) (Homo sapiens (Human), UniProt Q14191). Put plainly: WRN ATPase assay (ADP-Glo), DNA dependent ATP hydrolysis. It counts as biochemical. To be noted: 3 hours pre-incubation, 300 micromolar ATP, FLAP26 ssDNA; geometric means of at least 2 determinations. From the text: An ATPase assay was set up to measure the DNA dependent ATP hydrolysis activity of WRN helicase. This assay was used also to assess the inhibition properties of compounds of the invention on DNA dependent WRN ATPase activity.
Sequence of WRN helicase (core helicase motif aa N517-P1238) (Q14191 517-1238): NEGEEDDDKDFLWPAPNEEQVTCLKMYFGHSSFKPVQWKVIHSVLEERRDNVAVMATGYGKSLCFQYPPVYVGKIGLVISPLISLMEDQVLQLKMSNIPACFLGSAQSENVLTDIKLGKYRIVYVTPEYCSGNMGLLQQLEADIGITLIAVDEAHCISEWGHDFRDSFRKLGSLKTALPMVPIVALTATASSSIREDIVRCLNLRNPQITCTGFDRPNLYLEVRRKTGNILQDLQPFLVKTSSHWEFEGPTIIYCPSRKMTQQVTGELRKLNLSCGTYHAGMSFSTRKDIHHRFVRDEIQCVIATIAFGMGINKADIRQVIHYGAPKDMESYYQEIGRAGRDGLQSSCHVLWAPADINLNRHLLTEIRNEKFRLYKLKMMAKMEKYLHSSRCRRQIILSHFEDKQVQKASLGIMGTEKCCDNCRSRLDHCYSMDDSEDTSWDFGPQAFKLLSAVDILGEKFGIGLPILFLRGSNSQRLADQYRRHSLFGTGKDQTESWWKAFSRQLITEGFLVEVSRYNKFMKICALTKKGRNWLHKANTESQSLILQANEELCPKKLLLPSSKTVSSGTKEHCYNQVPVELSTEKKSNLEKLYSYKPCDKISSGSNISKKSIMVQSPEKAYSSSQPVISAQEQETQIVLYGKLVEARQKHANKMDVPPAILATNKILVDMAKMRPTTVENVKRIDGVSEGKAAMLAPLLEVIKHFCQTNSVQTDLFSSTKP
The core helicase motif of the WRN protein (aa N517-P1238) was produced for this assay (protein production as described above). A 45 oligonucleotide sequence called “FLAP26” as described by Brosh et al., 2009, DOI: 10.1074/jbc.M111446200 ([…]; SEQ ID NO: 2) was purchased from IDT (Integrated DNA Technologies, Leuven, Belgium) and used as single strand DNA substrate. The ADP-Glo assay kit (Promega, Madison, WI) allowing the quantification of ADP produced in ATP hydrolysis reactions was used for setting up this assay. Time course experiments were first performed in order to determine the best enzymatic assay conditions (including buffer conditions, reaction time and concentrations of protein, ATP and DNA substrates). A typical reaction consists of 10 nM WRN protein, 0.2 nM FLAP26, and 300 micromolar ATP in the following assay buffer: 30 mM Tris pH7.5, 2 mM MgCl2, 0.02% BSA, 50 mM NaCl, 0.1% pluronic F127 prepared in DNAse free water.
To evaluate the inhibition properties of compounds of the invention, serial dilutions were prepared in DMSO (10 half log dilutions from a 10 mM DMSO solution). 50 nanoliters of each concentration was pre-incubated for 3 hours in a 384 small volume assay plate (Greiner #784075) with 2.5 microliters of a 20 nM WRN helicase protein in assay buffer with 600 micromolar ATP. Control wells were included with a “high control” (no inhibition), containing DMSO with no test compound, and “low controls” (maximal inhibition), containing buffer without protein. The reaction was started by addition of 2.5 microliters of FLAP26 at 0.4 nM and incubated for 30 minutes at room temperature. The reaction was stopped with the addition of 5 microliters of the first ADP-Glo reagent and incubated for one hour to remove the excess amount of ATP. Afterwards, 10 microliters of ATP detection reagent was added and incubated for an additional hour before reading. Luminescence output was recorded using Tecan 1000 reader, with 5 minutes delay before reading. Each concentration of compound was tested in duplicates in the assay plate.
Data analysis was carried out using an in-house developed software (Novartis Helios software application, Novartis Institutes for BioMedical Research, unpublished) using the methods described by Formenko et al., 2006, DOI: 10.1016/j.cmpb.2006.01.008. Following normalization of activity values for the wells to % inhibition (% inhibition=[(high control-sample)/(high control-low control)]×100), IC50 fitting was carried out from the duplicate determinations present on each plate according to [4]. Data analysis can also be carried out using commercially available software designed to derive IC50 values using 4-parameter fits (e.g. GraphPad Prism, XL fit). The reported IC50 values are the geometrical means of at least 2 independent replicates.
In general terms: ADP-Glo turns the ADP formed in a reaction into a luminescent signal.

The subject of assay [3] is DLD1-WRN-KO cells. Put plainly: Proliferation assay DLD1-WRN-KO (CellTiterGlo, 96 hours), off-target effects. To be noted: Homo sapiens. It counts as cell-based.
Source text: as §1, §2, §3, §4
On the technique in general: ATP-based viability assays read luminescence as a measure of living cells.

With `CC(=O)N1CCN(c2c3n(c4nc(-c5ccccc5)nn4c2=O)C(C(=O)Nc2ccc(C(F)(F)F)cc2)CC3)CC1` (racemic) [Example 22, rac-6-(4-acetylpiperazin-1-yl)-5-oxo-2-phenyl-N-(4-(trifluoromethyl)phenyl)-5,7,8,9-tetrahydropyrrolo[1,2-c][1,2,4]triazolo[1,5-a]pyrimidine-9-carboxamide], the GI50 in assay [1] is 6 µM; in assay [3], above 10 µM. Inhibition in assay [2] was half-maximal at 0.7 µM (IC50).
For the compound `CC(=O)N1CCN(c2c3n(c4nc(C5=CCOCC5)nn4c2=O)C(C(=O)Nc2ccc(C(F)(F)F)cc2)CC3)CC1` (racemic) [Example 24, rac-6-(4-acetylpiperazin-1-yl)-2-(3,6-dihydro-2H-pyran-4-yl)-5-oxo-N-(4-(trifluoromethyl)phenyl)-5,7,8,9-tetrahydropyrrolo[1,2-c][1,2,4]triazolo[1,5-a]pyrimidine-9-carboxamide], the GI50 was 4 µM in assay [1] and above 10 µM in assay [3]. In assay [2], this compound came in with a half-inhibitory concentration (IC50) of 2 µM.
Take `C[C@@H]1C[C@H](C(=O)Nc2ccc(C(F)(F)F)cc2Cl)n2c1c(N1CCN(C(=O)c3nccc(Cl)c3O)CC1)c(=O)n1nc(N3CCOCC3)nc21` [Example 1A, (7R,9R)-6-(4-(4-chloro-3-hydroxypicolinoyl)piperazin-1-yl)-N-(2-chloro-4-(trifluoromethyl)phenyl)-7-methyl-2-morpholino-5-oxo-5,7,8,9-tetrahydropyrrolo[1,2-c][1,2,4]triazolo[1,5-a]pyrimidine-9-carboxamide]: the GI50 in assay [1] is 0.04 µM; in assay [3], above 10 µM. In addition, in assay [2], the IC50 was found to be 0.02 µM.
The corresponding values for `C[C@H]1C[C@@H](C(=O)Nc2ccc(C(F)(F)F)cc2Cl)n2c1c(N1CCN(C(=O)c3nccc(Cl)c3O)CC1)c(=O)n1nc(N3CCOCC3)nc21` [Example 1B, (7S,9S)-6-(4-(4-chloro-3-hydroxypicolinoyl)piperazin-1-yl)-N-(2-chloro-4-(trifluoromethyl)phenyl)-7-methyl-2-morpholino-5-oxo-5,7,8,9-tetrahydropyrrolo[1,2-c][1,2,4]triazolo[1,5-a]pyrimidine-9-carboxamide] are 9 µM, above 10 µM and 7 µM.
The corresponding values for `C[C@H]1C[C@H](C(=O)Nc2ccc(C(F)(F)F)cc2Cl)n2c1c(N1CCN(C(=O)c3nccc(Cl)c3O)CC1)c(=O)n1nc(N3CCOCC3)nc21` [Example 1C, (7S,9R)-6-(4-(4-chloro-3-hydroxypicolinoyl)piperazin-1-yl)-N-(2-chloro-4-(trifluoromethyl)phenyl)-7-methyl-2-morpholino-5-oxo-5,7,8,9-tetrahydropyrrolo[1,2-c][1,2,4]triazolo[1,5-a]pyrimidine-9-carboxamide] are 0.5 µM, above 10 µM and 0.04 µM.
For the compound `C[C@@H]1C[C@@H](C(=O)Nc2ccc(C(F)(F)F)cc2Cl)n2c1c(N1CCN(C(=O)c3nccc(Cl)c3O)CC1)c(=O)n1nc(N3CCOCC3)nc21` [Example 1D, (7R,9S)-6-(4-(4-chloro-3-hydroxypicolinoyl)piperazin-1-yl)-N-(2-chloro-4-(trifluoromethyl)phenyl)-7-methyl-2-morpholino-5-oxo-5,7,8,9-tetrahydropyrrolo[1,2-c][1,2,4]triazolo[1,5-a]pyrimidine-9-carboxamide], the GI50 is 5 µM in assay [1] and above 10 µM in assay [3]. In assay [2], this compound showed an IC50 of 3 µM.
`Cc1cc(C(F)(F)F)ccc1NC(=O)[C@@H]1CCc2c(N3CCN(C(=O)c4nccc(Cl)c4O)CC3)c(=O)n3nc(C4=CCOCC4)nc3n21` [Example 19B, (S)-6-(4-(4-chloro-3-hydroxypicolinoyl)piperazin-1-yl)-2-(3,6-dihydro-2H-pyran-4-yl)-N-(2-methyl-4-(trifluoromethyl)phenyl)-5-oxo-5,7,8,9-tetrahydropyrrolo[1,2-c][1,2,4]triazolo[1,5-a]pyrimidine-9-carboxamide] came in with an IC50 in assay [2] of 44 µM.
In assay [2], `CC(=O)N1CCN(c2c3n(c4nc(-c5ccccc5)nn4c2=O)[C@H](C(=O)Nc2ccc(C(F)(F)F)cc2)CC3)CC1` [Example 22B, (S)-6-(4-acetylpiperazin-1-yl)-5-oxo-2-phenyl-N-(4-(trifluoromethyl)phenyl)-5,7,8,9-tetrahydropyrrolo[1,2-c][1,2,4]triazolo[1,5-a]pyrimidine-9-carboxamide] returned an IC50 above 100 µM.
On to `Cc1ncnc(C(=O)N2CCN(c3c4n(c5nc(C6=CC(=O)OCC6)nn5c3=O)[C@@H](C(=O)Nc3ccc(C(F)(F)F)cc3Cl)C[C@H]4C)[C@H]3CC[C@@H]32)c1O` [Example 25, (7R,9R)—N-(2-chloro-4-(trifluoromethyl)phenyl)-6-((1S,6S)-5-(5-hydroxy-6-methylpyrimidine-4-carbonyl)-2,5-diazabicyclo[4.2.0]octan-2-yl)-7-methyl-5-oxo-2-(6-oxo-3,6-dihydro-2H-pyran-4-yl)-5,7,8,9-tetrahydropyrrolo[1,2-c][1,2,4]triazolo[1,5-a]pyrimidine-9-carboxamide], for which the figures for the 50% growth inhibitory concentration (GI50) in assay [1] and in assay [3] were 0.01 µM and above 10 µM, respectively.

For orientation: GI50 means the concentration giving 50% growth inhibition. High values mean lower sensitivity of the cells, low ones greater sensitivity of the cells. A word on the IC50: it is the point on the concentration scale where inhibition reaches its midpoint.

The values are drawn from patent US20240245694A1, “Tricyclic Compounds and their Uses” (Novartis AG, priority 2022, published 2024).
